Data as given in paper PMC4147338, “Host defense peptides for treatment of colorectal carcinoma – a comparative in vitro and in vivo analysis” (Oncotarget, 2014).

Columns and labels:
[1] = FRET spectroscopy probe dilution assay, membrane intercalation; format: binding; conditions: NBD-PE/rhodamine-PE, peptide 0.2-0.8 μM, 20 mM HEPES 150 mM NaCl pH 7.4, 37°C
Method: FRET spectroscopy served as a sensitive tool to detect lipid dependence of the membrane interaction of antimicrobial peptides. For this, all peptides were added to liposomes consisting of zwitterionic PC alone, of a mixture of PC and of negatively charged PS, as well as of pure PS (Figure 1). All lipid vesicles were doped with donor and acceptor dyes, peptides were added, and the emission intensities of both dyes were monitored over time. An increase of the fluorescence intensity of the donor (IDonor) and a simultaneous decrease of the fluorescence intensity of the acceptor dye (IAcceptor), i.e. a reduced FRET efficacy, indicated an increase in the overall mean distance between labeled phospholipids, and corresponded to an insertion of peptides into the lipid bilayer. For clarity, the IDonor/IAcceptor ratio is shown (Figure 1).
Figure 1 FRET spectroscopy. (A-C) Binding to and insertion of peptide C7A-D21K into phospholipid membranes (A) C7A-D21K was added at time point 50 s to liposomes (10 μM) consisting of pure PC, (B) a 90:10 molar mixture of PC:PS, and (C) of pure PS, each doubly doped with the fluorescently labeled FRET pair NBD-PE (donor) and rhodamine-PE (acceptor). Intercalation was monitored by measuring donor and acceptor fluorescence emission intensities. For better visualization only the quotient (IDonor/IAcceptor) is shown. Addition of the peptide solvent alone had no effect (dotted grey line). Peptide concentrations used: 0.2 μM (dotted black line, only in C), 0.4 μM (solid grey line, only in C), and 0.8 μM (solid black line). (D-F) Binding to and insertion of peptides at different concentrations into phospholipid membranes. (A) Peptides were added to liposomes consisting of pure PC, (B) a 90:10 molar mixture of PC:PS, and (C) of pure PS, each doubly doped with the fluorescently labeled phospholipid FRET pair NBD-PE (donor) and rhodamine-PE (acceptor). Intercalation was monitored by measuring donor and acceptor fluorescence intensities. The relative increase of the IDonor/IAcceptor ratio 250 s after peptide addition is shown (Increase of IDonor/IAcceptor (%) = (IDonor/IAcceptor (peptide) - IDonor/IAcceptor (control))*100). Peptide concentrations used: 0.2 μM (open bars), 0.4 μM (grey bars), and 0.8 μM (black bars).
Intercalation of peptides into liposome membranes was determined by FRET spectroscopy applied as a probe dilution assay. Liposomes were prepared by dissolving appropriate lipid mixtures (pure PC, a 90:10 molar mixture of PC:PS, as well as pure PS, each doped with 1% of the donor dye NBD-PE and 1% of the acceptor dye rhodamine-PE) in chloroform and drying them under a gentle stream of nitrogen. The resulting lipid film was dispersed in 20 mM HEPES, 150 mM NaCl, pH 7.4, sonicated for 30 min and subjected to 3-4 temperature cycles from 4 to 60°C with an incubation period of 30 min at each step. Lipid dispersions were stored at 4°C overnight before use. For the assay, donor fluorescence (NBD) was excited at 470 nm, and donor (NBD, ID at 531 nm) as well as acceptor (rhodamine, IA at 593 nm) emission intensities were monitored over time. An increase of the ratio of the donor fluorescence intensity to that of the acceptor fluorescence intensity (IDonor/I^Acceptor) was interpreted as a membrane intercalation event. This ratio depends on the Förster efficiency, therefore a rising value means that the mean distance separation of donor and acceptor dyes is raising. The assay was performed at 37°C.

HCT116 cells = assay: Calcein-AM cell viability staining, 24h; format: cell-based, human; conditions: HCT116, 24h, 0.25-12.5 μM
Method: (§1) Figure 4 HDP-mediated cytotoxicity towards tumor cells Quantitative analysis of direct cytotoxicity towards tumor cells following a 24h incubation period with increasing HDP concentrations. Viability was assessed using Calcein-AM staining. Remaining viable tumor cells were quantified in comparison to untreated controls, which were set to be =1. […] Values are given as the mean x-fold increase ± SD. *p<0.05 vs. NK11; **p<0.01 vs. NK11.
(§2) This assay is based on Calcein-acetoxymethylester (Calcein-AM; Invitrogen, Darmstadt, Germany) staining to detect viable cells within a culture. Tumor and normal (PBL) cells (1-2 × 10^4 cells/well in triplicates) were seeded in 96-well plates and incubated overnight. Thereafter, peptides were added in increasing concentrations (ranging from 0.25 μM – 12.5 μM). Untreated cells served as living cell control. Medium was removed after 1h or 24h, respectively. Calcein-AM ([…]) was added and incubated for 30 min (37°C, 5% CO2). Analysis was performed on a fluorescence multi-well plate reader (Tecan Infinite® M200, Crailsheim, Germany) at an excitation wavelength of 485 nm (emission 535 nm). For estimation of cell viability, the relative fluorescence intensities of Calcein-AM-stained non-treated cells (=live control) were set to be 1, and fluorescence intensities of samples were calculated. Data of at least three independent experiments each performed in […] are given.

HROC24 cells [2] = assay: Calcein-AM cell viability staining, 24h; format: cell-based, human; conditions: HROC24, 24h, 0.25-12.5 μM
Method: as §1, §2

HROC18 cells = assay: Apoptosis/necrosis assay, YO-PRO-1/PI flow cytometry; format: cell-based, human; conditions: HROC18, 24h, background cell death subtracted
Method: (§3) Figure 5 Apoptosis/necrosis assay and Western blot analysis (A, B) HROC18 and HROC24 cells were exposed to increasing HDP concentrations for a period of 24 hours. Tumor cells were stained with YO-PRO-1 for detecting early and late apoptotic tumor cells. Prior to flow cytometric analysis, PI was added to detect necrotic cells, as well. (A) Representative dot plots showing HDP-treated HROC24 cells at a concentration of 5 μM. Lower right quadrant: early apoptotic cells; upper right quadrant: late apoptotic cells; upper left quadrant: necrotic cells. (B) For cell death quantification, values of background cell death (=untreated controls) were subtracted from values of HDP-treated cells. Left panel: HROC24 cell; right panel: HROC18 cells. (C, E) Representative western blot results showing HDP-treated HROC24 cells (20 μg of total protein per lane). (D, F) Quantitative analysis of BAX and HSP90 expression in HDP-treated cells was done as described in material & methods. Expression levels of untreated cells were set to be =1 and x-fold increases of HDP-exposed cells were calculated. […] Values are given as mean ± SD.
(§4) Cell death was quantified by YO-PRO-1 (Invitrogen) and PI double staining. Selected tumor cells (HROC24 and HROC18, 1 × 10^4 cells/well) were seeded in 24-well plates and incubated overnight. Thereafter, peptides were added in increasing concentrations (ranging from 0.25 μM – 12.5 μM). Untreated cells served as living control. Following a 24-hour incubation period, supernatants were collected; cells were trypsinized and washed in PBS. Cells were stained with YO-PRO-1 (final concentration: 0.2 μM) for 20 min at room temperature. Prior to flow cytometric analysis, PI was added at a final concentration of 100 μg/ml. For cell death quantification, values of background cell death (=untreated controls) were subtracted from values of HDP-treated cells.

HROC24 cells [3] = assay: as above; format: cell-based, human
Method: as §3, §4

[4] = test system: HDP-responsive cell lines (e.g. HROC24); assay: Western blot analysis of Bax and HSP90 expression; format: cell-based, human; conditions: normalized to β-actin, untreated =1
Method: Figure 5 Apoptosis/necrosis assay and Western blot analysis (A, B) HROC18 and HROC24 cells were exposed to increasing HDP concentrations for a period of 24 hours. Tumor cells were stained with YO-PRO-1 for detecting early and late apoptotic tumor cells. Prior to flow cytometric analysis, PI was added to detect necrotic cells, as well. (A) Representative dot plots showing HDP-treated HROC24 cells at a concentration of 5 μM. Lower right quadrant: early apoptotic cells; upper right quadrant: late apoptotic cells; upper left quadrant: necrotic cells. (B) For cell death quantification, values of background cell death (=untreated controls) were subtracted from values of HDP-treated cells. […] (D, F) Quantitative analysis of BAX and HSP90 expression in HDP-treated cells was done as described in material & methods. Expression levels of untreated cells were set to be =1 and x-fold increases of HDP-exposed cells were calculated. […]
Cellular protein extracts were obtained from HDP-treated and control cells following incubation with lysis buffer (1 M Tris, pH 7.5, 5 M sodium chloride, 0.25 M ethylenediaminetetraacetic acid, 10% (v/v) triton-x 100, 4% (v:v) sodium azide, 0.1 M phenylmethane-sulfonylfluoride, protease inhibitor cocktail (Roche, Mannheim, Germany)) on ice for 30 min. […] Signal integrated intensities were quantified applying the Odyssey® software version 3.16. […]

[5] = test system: whole blood cells of healthy donors; assay: Hemolysis assay, hemoglobin release; format: cell-based, human; conditions: whole blood of healthy donors (n=6), 0.25-12.5 μM, 120 min incubation (text: 24h), absorption 540 nm, 1% SDS = maximum lysis
Method: Figure 6 Hemolysis and lymphotoxicity assays (A) Hemolytic activity of HDPs was determined by hemoglobin release from whole blood cells after 120 min incubation. Negative controls were left untreated whereas positive controls (=maximum lysis) were treated with 1% SDS. Hemolytic activity was quantified as described in the material and methods section. (B) PBLs were incubated in the presence of increasing HDP concentrations for a period of 24 hours. Viability was analyzed using Calcein-AM and quantified in comparison to untreated controls, which were set to be =1. […] Experiments were performed in triplicates. Values are given as the mean x-fold increase ± SD.
Hemolytic activity of HDPs was determined by hemoglobin release from whole blood cells after 120 min incubation. Briefly, whole blood of healthy donors (n=6) was seeded in 96-well plates and supplemented with HDPs at given concentrations (ranging from: 0.25 μM – 12.5 μM). Negative controls were left untreated and positive controls (=maximum lysis) were treated with 1% SDS. Following the incubation period, cell-free supernatants were transferred into a new 96-well plate and absorption was measured on a plate reader at 540 nm (reference wave length: 690 nm). Hemolytic activity was quantified according to the following formula: % hemolysis=((OD540nm sample−OD540nm buffer)/OD540nm max−OD540nm buffer)*100

Compound: KILRGVAKKIMRTFLRR ILTGKK [Peptide C7A-Δ, C7A shortened by deletion of four amino acid residues]
- Membrane intercalation (increase of IDonor/IAcceptor) ([1]; PC:PS 90:10 liposomes 10 μM): slightly impaired
- Membrane intercalation (increase of IDonor/IAcceptor) ([1]; pure PS liposomes 10 μM): pronounced
- Lytic activity towards tumor cells (HCT116 cells): as effective as the reference compound Mellitin
- Lytic activity towards tumor cells (HROC24 cells [2]): as effective as the reference compound Mellitin
- total killing (HROC18 cells): up to 60%
- Levels of viable HROC24 cells (HROC24 cells [3]; 24h, higher concentrations): 17%
- Tumor killing compared with Melittin (HROC24 cells [3]; HROC24, 24h): as effective in tumor killing as Melittin

Compound: CC[C@H](C)[C@H](NC(=O)CN)C(=O)NCC(=O)N[C@@H](C)C(=O)N[C@H](C(=O)N[C@@H](CC(C)C)C(=O)N[C@@H](CCCCN)C(=O)N[C@H](C(=O)N[C@@H](CC(C)C)C(=O)N[C@H](C(=O)N[C@H](C(=O)NCC(=O)N[C@@H](CC(C)C)C(=O)N1CCC[C@H]1C(=O)N[C@@H](C)C(=O)N[C@@H](CC(C)C)C(=O)N[C@H](C(=O)N[C@@H](CO)C(=O)N[C@@H](Cc1c[nH]c2ccccc12)C(=O)N[C@H](C(=O)N[C@@H](CCCCN)C(=O)N[C@@H](CCCNC(=N)N)C(=O)N[C@@H](CCCCN)C(=O)N[C@@H](CCCNC(=N)N)C(=O)N[C@@H](CCC(N)=O)C(=O)N[C@@H](CCC(N)=O)C(N)=O)[C@@H](C)CC)[C@@H](C)CC)[C@@H](C)O)[C@@H](C)O)C(C)C)C(C)C [Melittin]
- total killing (HROC18 cells): 71%
- HSP90 protein expression [4]: dose-dependently induced
- hemolysis [5]: below 20%
